Results on 25 compounds are retold here after patent US20080139607A1, “New Compounds” (ASTRAZENECA AB, priority 2006, published 2008).

For orientation: IC50 means the point on the concentration scale where inhibition reaches its midpoint.

Sequence of Recombinant human PAI-1 (P05121 24-402): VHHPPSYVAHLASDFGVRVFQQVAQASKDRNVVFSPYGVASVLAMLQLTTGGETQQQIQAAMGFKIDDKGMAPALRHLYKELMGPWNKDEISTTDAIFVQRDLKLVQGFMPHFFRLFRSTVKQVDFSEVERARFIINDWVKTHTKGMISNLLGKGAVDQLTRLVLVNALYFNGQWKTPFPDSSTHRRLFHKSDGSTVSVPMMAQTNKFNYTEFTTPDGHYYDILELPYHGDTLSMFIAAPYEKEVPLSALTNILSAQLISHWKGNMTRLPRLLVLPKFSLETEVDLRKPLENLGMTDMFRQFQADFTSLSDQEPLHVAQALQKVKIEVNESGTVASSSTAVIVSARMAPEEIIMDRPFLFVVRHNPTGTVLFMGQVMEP

The target of this assay is Recombinant human PAI-1 (Homo sapiens, UniProt P05121). The assay can be described thus: Plasma clot lysis assay for testing of PAI-1 inhibitors (clot lysis in platelet-poor plasma). It is filed as biochemical. To be noted: concentration at which clot lysis time is halved (pIC50=-log IC50); platelet-poor plasma 50%, PAI-1 10-13 ng/mL, t-PA 34 ng/mL, 37° C. The method, then:
Plasma Clot Lysis Assay for Testing of PAI-1 Inhibitors
CaCl2, p.a. Stock solution 0.1 M in water.
PAI-1 inhibitors dissolved in 100% DMSO.
Experimental Procedures—Clot Lysis in Platelet-Poor Plasma
Blood from healthy fat-fasting volunteers was collected into 0.13 M trisodium citrate, 9 parts blood to 1 part anticoagulant. The tubes were centrifuged at 2000×g, 20 min, at RT. The supernatant, ie, the platelet poor plasma was pooled, aliquoted and frozen at −85° C. until used. At the day of experiment the plasma was thawed in a water bath and temperated to 37° C. All other constituents, except t-PA, were prewarmed to 37° C. To each well on a microtiter plate, 25 μL CaCl2, 25 μL PAI-1 or 25 μL PAI-1 vehicle, 20 μL saline and 5 μL drug or 5 μL vehicle (100% DMSO) were added. Plasma was mixed with cold t-PA solution in the relation 4 parts plasma with 1 part t-PA, just before adding 125 μL of this mixture to each well. The final concentration was 12.5 mM for CaCl2, 10-13 ng/mL for PAI-1, 34 ng/mL for t-PA, and the compounds were tested at a final concentration range 0.1 nM to 0.25 mM. The final plasma concentration was 50%, as a result of the different additives. The plate, covered with a plastic lid, was placed in a Microplate reader (Molecular Devices, US) and gently shaken. The change in turbidity was immediately monitored as a change in absorbance at 405 nm at 37° C. Data points were collected at intervals of 2 min, during a period of 10 h. After finished reading, the absorbance data were transformed into files containing the time and absorbance values for each well. The clot longevity, ie, the time the clot exists, was determined as the time between clot formation, ie, positive Vmax, and clot lysis, ie, negative Vmax. The effect of the drugs, ie, shortening of the longevity for the clot, was expressed as the concentration at which a halving of the clot lysis time was reached, the IC50 (pIC50=−log IC50). Control clot lysis time, set to 100%, was determined in the presence of PAI-1, and the maximal effect, ie, the shortest lysis time that can be reached under defined conditions in this system, in the absence of PAI-1 was set to 0%.
Compounds having a pIC50 higher than 4 were considered as being active.
For the compound `CCCCCCCc1cc(=O)n2c(c1-c1ccc(F)c(F)c1)SC[C@H]2C(=O)O` [Example 1, (3R)-8-(3,4-Difluoro-phenyl)-7-heptyl-5-oxo-2,3-dihydro-5H-thiazolo[3,2-a]pyridine-3-carboxylic acid], the IC50 was 15.8 µM. For `CCCCCCCc1cc(=O)n2c(c1-c1ccc(F)c(F)c1)SC[C@H]2C(=O)NS(C)(=O)=O` [Example 2, (3R)—N-[8-(3,4-Difluoro-phenyl)-7-heptyl-5-oxo-2,3-dihydro-5H-thiazolo[3,2-a]pyridine-3-carbonyl]-methanesulfonamide], the IC50 is 10 µM.

With `CCCCCCCc1cc(=O)n([C@@H](C)C(=O)O)cc1-c1ccc(F)c(F)c1` [Example 3, (2S)-2-[5-(3,4-Difluoro-phenyl)-4-heptyl-2-oxo-2H-pyridin-1-yl]-propionic acid], the IC50 was 12.6 µM.

As for `CCCCCCCc1cc(=O)n2c(c1-c1ccc(F)c(F)c1)SC[C@@H]2C(N)=O` [Example 4, (3S)-8-(3,4-Difluoro-phenyl)-7-heptyl-5-oxo-2,3-dihydro-5H-thiazolo[3,2-a]pyridine-3-carboxylic acid amide], the IC50 was 50.1 µM.

For `CCCCCCCc1cc(=O)n2c(c1-c1ccc(F)c(F)c1)SC[C@H]2c1nnn[nH]1` [Example 5, (3R)-8-(3,4-Difluoro-phenyl)-7-heptyl-3-(1H-tetrazol-5-yl)-2,3-dihydro-thiazolo[3,2-a]pyridin-5-one], the IC50 was 25.1 µM.

For `CCCCCCCc1c(-c2ccc(F)c(F)c2)c2n(c(=O)c1C(=O)O)[C@H](C(=O)OC)CS2` [Example 6, (3R)-8-(3,4-Difluoro-phenyl)-7-heptyl-5-oxo-2,3-dihydro-5H-thiazolo[3,2-a]pyridine-3,6-dicarboxylic acid 3-methyl ester], the IC50 was 20 µM. With `CCCCCCCc1cc(=O)n2c(c1-c1cccc(C(F)(F)F)c1)SC[C@H]2C(=O)O` [Example 7, (3R)-7-Heptyl-5-oxo-8-(3-trifluoromethyl-phenyl)-2,3-dihydro-5H-thiazolo[3,2-a]pyridine-3-carboxylic acid] the figure was 12.6 µM; with `CCCCCCCc1cc(=O)n2c(c1-c1cccc(C(F)(F)F)c1)SC[C@H]2C(=O)NS(=O)(=O)c1ccccc1` [Example 8, (3R)—N-[7-Heptyl-5-oxo-8-(3-trifluoromethyl-phenyl)-2,3-dihydro-5H-thiazolo[3,2-a]pyridine-3-carbonyl]-benzenesulfonamide], 2.51 µM; with `CCCCc1cc(=O)n2c(c1-c1cccc(C(F)(F)F)c1)SC[C@H]2C(=O)O` [Example 9, (3R)-7-Butyl-5-oxo-8-(3-trifluoromethyl-phenyl)-2,3-dihydro-5H-thiazolo[3,2-a]pyridine-3-carboxylic acid], 39.8 µM. With `CCCCCCCc1c(-c2cccc(C(F)(F)F)c2)c2n(c(=O)c1[N+](=O)[O-])[C@H](C(=O)O)CS2` [Example 10, (3R)-7-Heptyl-6-nitro-5-oxo-8-(3-trifluoromethyl-phenyl)-2,3-dihydro-5H-thiazolo[3,2-a]pyridine-3-carboxylic acid] the figure was 3.98 µM; with `CCCCCCCc1cc(=O)n2c(c1-c1ccc(F)c(F)c1)SC[C@@H]2C(=O)O` [Example 11, (3S)-8-(3,4-Difluoro-phenyl)-7-heptyl-5-oxo-2,3-dihydro-5H-thiazolo[3,2-a]pyridine-3-carboxylic acid], 10 µM; with `CCCCCCc1c(-c2cccc(C(F)(F)F)c2)c2n(c(=O)c1[N+](=O)[O-])[C@H](C(=O)O)CS2` [Example 12, (3R)-7-Hexyl-6-nitro-5-oxo-8-(3-trifluoromethyl-phenyl)-2,3-dihydro-5H-thiazolo[3,2-a]pyridine-3-carboxylic acid], 12.6 µM. Then `CC(C)CCc1c(-c2cccc(C(F)(F)F)c2)c2n(c(=O)c1[N+](=O)[O-])[C@H](C(=O)O)CS2` [Example 13, (3R)-7-(3-methylbutyl)-6-nitro-5-oxo-8-(3-trifluoromethyl-phenyl)-2,3-dihydro-5H-thiazolo[3,2-a]pyridine-3-carboxylic acid], with 12.6 µM; and `CCCCCCc1c(-c2cccc(C(F)(F)F)c2)c2n(c(=O)c1N)[C@H](C(=O)O)CS2` [Example 14, (3R)-6-Amino-7-hexyl-5-oxo-8-(3-trifluoromethyl-phenyl)-2,3-dihydro-5H-thiazolo[3,2-a]pyridine-3-carboxylic acid], with 12.6 µM. Regarding `CCCCc1c(-c2cccc(C(F)(F)F)c2)c2n(c(=O)c1[N+](=O)[O-])[C@H](C(=O)O)CS2` [Example 15, (3R)-7-Butyl-6-nitro-5-oxo-8-(3-trifluoromethyl-phenyl)-2,3-dihydro-5H-thiazolo[3,2-a]pyridine-3-carboxylic acid], the IC50 was 39.8 µM. Then `CC(C)CCc1c(-c2cccc(C(F)(F)F)c2)c2n(c(=O)c1N)[C@H](C(=O)O)CS2` [Example 16, (3R)-6-Amino-7-(3-methyl-butyl)-5-oxo-8-(3-trifluoromethyl-phenyl)-2,3-dihydro-5H-thiazolo[3,2-a]pyridine-3-carboxylic acid], with 79.4 µM. On to `CCCCCCCc1c(-c2ccc(F)c(F)c2)c2n(c(=O)c1[N+](=O)[O-])[C@H](C(=O)O)CS2` [Example 17, (3R)-8-(3,4-Difluoro-phenyl)-7-heptyl-6-nitro-5-oxo-2,3-dihydro-5H-thiazolo[3,2-a]pyridine-3-carboxylic acid], for which the IC50 was 20 µM.

With `CCCCCCCCc1cc(=O)n2c(c1-c1cccc(C(F)(F)F)c1)SC[C@H]2C(=O)O` [Example 18, (3R)-7-octyl-5-oxo-8-[3-(trifluoromethyl)phenyl]-2,3-dihydro-5H-[1,3]thiazolo[3,2-a]pyridine-3-carboxylic acid], the IC50 was 3.98 µM.

As to `CCCCCCCc1cc(=O)n2c(c1-c1cccs1)SC[C@H]2C(=O)O` [Example 19, (3R)-7-heptyl-5-oxo-8-(2-thienyl)-2,3-dihydro-5H-[1,3]thiazolo[3,2-a]pyridine-3-carboxylic acid], the IC50 is 10 µM.

As for `CCCCCCCc1cc(=O)n2c(c1-c1c[nH]c3ccccc13)SC[C@H]2C(=O)O` [Example 20, (3R)-7-heptyl-8-(1H-indol-3-yl)-5-oxo-2,3-dihydro-5H-[1,3]thiazolo[3,2-a]pyridine-3-carboxylic acid], the IC50 was 12.6 µM. On to `O=C(O)[C@@H]1CSc2c(-c3ccccc3)c(CCCOc3ccc(Cl)cc3Cl)cc(=O)n21` [Example 21, (3R)-7-[3-(2,4-dichloro-phenoxy)-propyl]-5-oxo-8-phenyl-2,3-dihydro-51H-thiazolo[3,2-a]pyridine-3-carboxylic acid], for which the half-maximal inhibitory concentration (IC50) was 12.6 µM. With `CCCCCCCc1cc(=O)n2c(c1-c1ccc(F)c(F)c1)S[C@H](OC)[C@H]2C(=O)O` [Example 22, (2S,3R)-8-(3,4-difluorophenyl)-7-heptyl-2-methoxy-5-oxo-2,3-dihydro-5H-[1,3]thiazolo[3,2-a]pyridine-3-carboxylic acid] the figure was 10 µM. On to `CCCCCCCc1cc(=O)n2c(C(=O)O)csc2c1-c1ccc(F)c(F)c1` [Example 23, 8-(3,4-difluorophenyl)-7-heptyl-5-oxo-5H-[1,3]thiazolo[3,2-a]pyridine-3-carboxylic acid], for which the IC50 is 10 µM. With `CCCCCCCc1cc(=O)n2c(c1-c1ccc(F)c(F)c1)S[C@H](c1ccccc1)[C@H]2C(=O)O` [Example 24, (2R,3R)-8-(3,4-difluorophenyl)-7-heptyl-5-oxo-2-phenyl-2,3-dihydro-5H-[1,3]thiazolo[3,2-a]pyridine-3-carboxylic acid] the figure was 5.01 µM. With `CCCCCCCc1cc(=O)n2c(c1-c1ccc(F)c(F)c1)S[C@H](C)[C@H]2C(=O)O` [Example 25, (2R,3R)-8-(3,4-difluorophenyl)-7-heptyl-2-methyl-5-oxo-2,3-dihydro-5H-[1,3]thiazolo[3,2-a]pyridine-3-carboxylic acid] the figure was 3.98 µM.
